Data reported in PMC6713165, “Identification of 1H-pyrazolo[3,4-b]pyridine derivatives as potent ALK-L1196M inhibitors” (Journal of Enzyme Inhibition and Medicinal Chemistry, 2019).
Like-named read-outs stand apart in the source and are kept apart here.

Experiments:
ALK-wt = ALK-wt (Homo sapiens, UniProt Q9UM73); experiment: Radiometric biochemical kinase assay, ALK-wt; details: radiometric kinase assay, 10 µM ATP; for IC50: read-out: IC50 ALK-wt
Protocol: (§1) Biochemical kinase assay was performed by methods previously reported. Kinase reactions of all test compounds except 10g were carried out at 10 µM ATP. Kinase reaction of 10g was performed at three different concentrations of ATP (10/50/100 µM).

Parental Ba/F3 cells = experiment: Anti-proliferation assay (CTG), parental Ba/F3; format: cell-based; details: with IL-3, mean ± SD of three independent experiments; for GI50: Mus musculus, BaF3, 72 h, read-out: GI50 Ba/F3 cell lines Parental; for GI50 Ba/F3 cell lines Parental: 72 h
Protocol: (§2) ALK wt-TEL, ALK L1196M-TEL transformed Ba/F3 and H2228 cell lines were cultured in RPMI1640 (Welgene, # LM011-01). […] Parental Ba/F3 cells were cultured in RPMI1640 media supplemented with 10% foetal bovine serum and 1% penicillin/streptomycin solution in the presence of IL-3. The cells were maintained in a humidified atmosphere containing 5% CO2 at 37 °C.
(§3) Cells (ALK wt-TEL, ALK L1196M-TEL and Parental Ba/F3: 1 × 10^4, H2228: 5 × 10^3) were plated in 96 well tissue culture plates. Each compound was added to each well at 10 dose points of three-fold serial dilution in DMSO. After treatment with each compound for 72 h, CTG assay solution (Promega, # G7572) was added to each well.

[1] = system: ALK L1196M-TEL Ba/F3 cells; experiment: Anti-proliferation assay (CTG), ALK L1196M-TEL Ba/F3; format: cell-based; details: for GI50: Mus musculus, BaF3, read-out: GI50 Ba/F3 cell lines ALKL1196M-TEL; for differential cytotoxicity against ALK-L1196M Ba/F3 cells vs. parental Ba/F3 cells compared with crizotinib: in words
Protocol: as §2, §3

ALK wt-TEL Ba/F3 cells = experiment: Anti-proliferation assay (CTG), ALK wt-TEL Ba/F3; format: cell-based; details: 72 h, CTG, mean ± SD of three independent experiments; for GI50: Mus musculus, BaF3, read-out: GI50 Ba/F3 cell lines ALK wt-TEL
Protocol: as §2, §3

H2228 (EML4-ALK) cells = experiment: Anti-proliferation assay (CTG), H2228; format: cell-based; details: mean ± SD of three independent experiments; for GI50 H2228 (EML4-ALK): 72 h; for GI50: Homo sapiens, NCI-H2228, 72 h
Protocol: as §2, §3

ALK-L1196M = ALK-L1196M (Homo sapiens, UniProt Q9UM73, L1196M); experiment: Radiometric biochemical kinase assay, ALK-L1196M; details: for IC50: radiometric kinase assay, 10 µM ATP
Chain of ALK-L1196M (Q9UM73 19-1620 L1196M): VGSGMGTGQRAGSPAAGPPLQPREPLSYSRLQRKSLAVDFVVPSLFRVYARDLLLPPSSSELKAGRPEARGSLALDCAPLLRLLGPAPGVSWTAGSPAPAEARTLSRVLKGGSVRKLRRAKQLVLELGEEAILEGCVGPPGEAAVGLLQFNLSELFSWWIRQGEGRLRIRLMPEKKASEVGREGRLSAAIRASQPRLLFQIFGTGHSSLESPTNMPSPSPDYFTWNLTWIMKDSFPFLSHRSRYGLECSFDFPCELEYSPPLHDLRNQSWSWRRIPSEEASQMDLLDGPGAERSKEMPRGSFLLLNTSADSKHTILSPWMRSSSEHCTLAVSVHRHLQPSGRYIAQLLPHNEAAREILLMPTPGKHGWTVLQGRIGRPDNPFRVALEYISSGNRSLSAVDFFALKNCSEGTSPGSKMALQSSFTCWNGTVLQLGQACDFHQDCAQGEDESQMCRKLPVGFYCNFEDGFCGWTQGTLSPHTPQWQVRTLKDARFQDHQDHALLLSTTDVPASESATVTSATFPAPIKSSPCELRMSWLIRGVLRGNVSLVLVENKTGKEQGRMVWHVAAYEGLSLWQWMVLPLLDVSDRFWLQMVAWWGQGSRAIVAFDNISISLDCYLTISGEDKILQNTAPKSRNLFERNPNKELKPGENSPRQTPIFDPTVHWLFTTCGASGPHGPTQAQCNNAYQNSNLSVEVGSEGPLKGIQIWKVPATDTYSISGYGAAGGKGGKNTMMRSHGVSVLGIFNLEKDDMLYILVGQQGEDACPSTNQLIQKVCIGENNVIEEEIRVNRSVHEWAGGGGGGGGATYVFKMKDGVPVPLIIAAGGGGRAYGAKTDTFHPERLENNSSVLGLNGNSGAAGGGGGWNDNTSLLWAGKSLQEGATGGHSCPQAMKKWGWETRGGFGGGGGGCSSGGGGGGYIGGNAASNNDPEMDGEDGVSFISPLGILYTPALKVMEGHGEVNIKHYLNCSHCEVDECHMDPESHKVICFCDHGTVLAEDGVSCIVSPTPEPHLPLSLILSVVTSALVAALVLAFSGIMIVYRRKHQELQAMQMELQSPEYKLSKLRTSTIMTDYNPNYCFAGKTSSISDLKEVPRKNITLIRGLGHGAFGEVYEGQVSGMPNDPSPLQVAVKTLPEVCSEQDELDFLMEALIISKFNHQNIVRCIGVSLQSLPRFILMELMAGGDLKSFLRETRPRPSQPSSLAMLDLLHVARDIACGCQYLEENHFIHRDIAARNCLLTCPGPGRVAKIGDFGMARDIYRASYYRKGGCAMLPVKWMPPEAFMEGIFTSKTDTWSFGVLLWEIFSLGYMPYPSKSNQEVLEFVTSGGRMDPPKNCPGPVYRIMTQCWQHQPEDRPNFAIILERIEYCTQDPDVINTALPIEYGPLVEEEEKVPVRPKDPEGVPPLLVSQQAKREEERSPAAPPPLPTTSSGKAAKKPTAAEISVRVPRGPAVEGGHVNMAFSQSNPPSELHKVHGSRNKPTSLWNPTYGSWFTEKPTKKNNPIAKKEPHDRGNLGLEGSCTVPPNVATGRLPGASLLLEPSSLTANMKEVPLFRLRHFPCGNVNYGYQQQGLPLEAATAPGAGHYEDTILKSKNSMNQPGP
Protocol: as §1

[2] = Permeability assessment using Caco-2 cells; format: in vitro ADME, human; details: human; for efflux ratio at 120 min, 10 µM / Papp B→A at 120 min, 10 µM: Caco-2, 10 µM
Protocol: (§4) Stock solutions (10 mM) of reference compounds and 10g were diluted to a concentration of 10 µM with the transport buffer (HBSS + 1%BSA) and the test compounds were applied to the apical or basolateral side of the cell monolayer. […] In addition, the efflux ratio of each compound was also determined. Reference compounds and 10g were quantified by LC-MS/MS analysis based on the peak area ratio of analyte/the internal standard.

Caco-2 cells = experiment: Permeability assessment using Caco-2 cells; format: in vitro ADME, human; details: P-gp substrate status from efflux ratio
Protocol: as §4

[3] = 72 h, CTG, mean ± SD of three independent experiments
[4] = Caco-2, Caco-2, 10 µM, 120 min, 37 °C, HBSS + 1%BSA, read-out: Mean Papp A to B
[5] = Caco-2, Caco-2, 10 µM, 120 min, read-out: Mean recovery % A to B
[6] = Caco-2, Caco-2, 10 µM, 120 min, read-out: Mean recovery % B to A
[7] = Caco-2, Caco-2 permeability class from Papp (A to B), read-out: Rank Papp

Chain of ALK-wt (Q9UM73 19-1620): as the sequence (Q9UM73 19-1620 L1196M) above, with M1178L counted along it

N#Cc1ccc(C(=O)Nc2n[nH]c3ncc(S(=O)(=O)c4cccc(F)c4)cc23)cc1 [10a, 4-Cyano-N-(5-((3-fluorophenyl)sulfonyl)-1H-pyrazolo[3,4-b]pyridin-3-yl)benzamide]
IC50 (ALK-wt): 0.453 µM

CN1CCN(c2cccc(C(=O)Nc3n[nH]c4ncc(S(=O)(=O)c5cccc(F)c5)cc34)c2)CC1 [10h, N-(5-((3-Fluorophenyl)sulfonyl)-1H-pyrazolo[3,4-b]pyridin-3-yl)-3–(4-methylpiperazin-1-yl)benzamide]
GI50 (Parental Ba/F3 cells): 15.2 ± 0.52 µM
GI50 [1, 3]: 2.28 ± 0.59 µM
differential cytotoxicity against ALK-L1196M Ba/F3 cells vs. parental Ba/F3 cells compared with crizotinib [1]: higher differential cytotoxicities
GI50 (ALK wt-TEL Ba/F3 cells): 3.35 ± 0.24 µM
GI50 H2228 (EML4-ALK) (H2228 (EML4-ALK) cells): Inactive

CS(=O)(=O)Nc1ccc(C(=O)Nc2n[nH]c3ncc(S(=O)(=O)c4cccc(F)c4)cc23)cc1 [13c, N-(5-((3-Fluorophenyl)sulfonyl)-1H-pyrazolo[3,4-b]pyridin-3-yl)-4-(methylsulfonamido)benzamide]
GI50 Ba/F3 cell lines Parental (Parental Ba/F3 cells): inactive
GI50 [1, 3]: 5.62 ± 2.34 µM
differential cytotoxicity against ALK-L1196M Ba/F3 cells vs. parental Ba/F3 cells compared with crizotinib [1]: higher differential cytotoxicities
GI50 (ALK wt-TEL Ba/F3 cells): 4.71 ± 3.02 µM
GI50 (H2228 (EML4-ALK) cells): 9.21 ± 1.92 µM

O=C(Nc1n[nH]c2ncc(S(=O)(=O)c3cccc(F)c3)cc12)c1cccc(C(F)(F)F)c1 [10b, N-(5-((3-Fluorophenyl)sulfonyl)-1H-pyrazolo[3,4-b]pyridin-3-yl)-3-(trifluoromethyl)benzamide]
IC50 ALK-wt (ALK-wt): little to no activity

CN(C)c1ccc(C(=O)Nc2n[nH]c3ncc(S(=O)(=O)c4cccc(F)c4)cc23)cc1 [10e, 4-(Dimethylamino)-N-(5-((3-fluorophenyl)sulfonyl)-1H-pyrazolo[3,4-b]pyridin-3-yl)benzamide]
GI50 Ba/F3 cell lines Parental (Parental Ba/F3 cells): Inactive
GI50 [1, 3]: 4.55 ± 0.72 µM
differential cytotoxicity against ALK-L1196M Ba/F3 cells vs. parental Ba/F3 cells compared with crizotinib [1]: higher differential cytotoxicities
GI50 (ALK wt-TEL Ba/F3 cells): 1.77 ± 0.69 µM
IC50 (ALK-wt): 0.0073 µM
IC50 (ALK-L1196M): 0.0007 µM
GI50 (H2228 (EML4-ALK) cells): 8.54 ± 0.78 µM

Nc1ccc(C(=O)Nc2n[nH]c3ncc(S(=O)(=O)c4cccc(F)c4)cc23)cc1 [compound 12, 4-Amino-N-(5-((3-fluorophenyl)sulfonyl)-1H-pyrazolo[3,4-b]pyridin-3-yl)benzamide]
GI50 Ba/F3 cell lines Parental (Parental Ba/F3 cells): Inactive
GI50 [1, 3]: 1.98 ± 0.28 µM
differential cytotoxicity against ALK-L1196M Ba/F3 cells vs. parental Ba/F3 cells compared with crizotinib [1]: higher differential cytotoxicities
GI50 (ALK wt-TEL Ba/F3 cells): 3.87 ± 1.54 µM
GI50 (H2228 (EML4-ALK) cells): 4.03 ± 1.81 µM

COc1ccc(C(=O)Nc2n[nH]c3ncc(S(=O)(=O)c4cccc(F)c4)cc23)cc1 [10d, N-(5-((3-Fluorophenyl)sulfonyl)-1H-pyrazolo[3,4-b]pyridin-3-yl)-4-methoxybenzamide]
GI50 Ba/F3 cell lines Parental (Parental Ba/F3 cells): Inactive
GI50 Ba/F3 cell lines ALKL1196M-TEL [1, 3]: Inactive
GI50 Ba/F3 cell lines ALK wt-TEL (ALK wt-TEL Ba/F3 cells): Inactive
IC50 (ALK-wt): 0.069 µM
activity against ALK-L1196M relative to crizotinib (ALK-L1196M; IC50 19 nM vs 980 nM of crizotinib): 50 fold
IC50 (ALK-L1196M): 0.019 µM
GI50 H2228 (EML4-ALK) (H2228 (EML4-ALK) cells): Inactive

CC(C)NCC(O)COc1cccc2ccccc12 (centres unmarked) [Propranolol]
Papp A→B at 120 min, 10 µM [2, 4]: 16.1 ×10⁻⁶ cm/s
recovery at 120 min, 10 µM [2, 5]: 84.8%
recovery at 120 min, 10 µM [2, 6]: 91.7%
Papp A→B at 120 min, 10 µM [2, 7]: > 10 ×10⁻⁶ cm/s
efflux ratio at 120 min, 10 µM ([2]; 120 min): 0.52
Papp B→A at 120 min, 10 µM ([2]; 120 min, 37 °C, HBSS + 1%BSA): 8.42 ×10⁻⁶ cm/s

C[C@H]1O[C@@H](O[C@H]2[C@@H](O)C[C@H](O[C@H]3[C@@H](O)C[C@H](O[C@H]4CC[C@@]5(C)[C@H](CC[C@@H]6[C@@H]5C[C@@H](O)[C@]5(C)[C@@H](C7=CC(=O)OC7)CC[C@]65O)C4)O[C@@H]3C)O[C@@H]2C)C[C@H](O)[C@@H]1O [Digoxin]
Rank P-gp (Caco-2 cells): Substrate
Papp A→B at 120 min, 10 µM [2, 4]: 0.43 ×10⁻⁶ cm/s
recovery at 120 min, 10 µM [2, 5]: 96.8%
recovery at 120 min, 10 µM [2, 6]: 95.1%
Papp A→B at 120 min, 10 µM [2, 7]: < 2.5 ×10⁻⁶ cm/s
efflux ratio at 120 min, 10 µM ([2]; 120 min): 20.2
Papp B→A at 120 min, 10 µM ([2]; 120 min, 37 °C, HBSS + 1%BSA): 8.6 ×10⁻⁶ cm/s

C[C@@H](Oc1cc(-c2cnn(C3CCNCC3)c2)cnc1N)c1c(Cl)ccc(F)c1Cl [crizotinib, reference compound]
GI50 (Parental Ba/F3 cells): 1.65 ± 0.13 µM

O=C(Nc1n[nH]c2ncc(S(=O)(=O)c3cccc(F)c3)cc12)c1ccc(C(F)(F)F)cc1 [10c, N-(5-((3-Fluorophenyl)sulfonyl)-1H-pyrazolo[3,4-b]pyridin-3-yl)-4-(trifluoromethyl)benzamide]
IC50 ALK-wt (ALK-wt): little to no activity

O=C(Nc1n[nH]c2ncc(S(=O)(=O)c3cccc(F)c3)cc12)c1ccc(N2CCOCC2)cc1 [10f, N-(5-((3-Fluorophenyl)sulfonyl)-1H-pyrazolo[3,4-b]pyridin-3-yl)-4-morpholinobenzamide]
GI50 Ba/F3 cell lines Parental (Parental Ba/F3 cells): Inactive
GI50 [1, 3]: 2.53 ± 1.5 µM
differential cytotoxicity against ALK-L1196M Ba/F3 cells vs. parental Ba/F3 cells compared with crizotinib [1]: higher differential cytotoxicities
GI50 (ALK wt-TEL Ba/F3 cells): 0.916 ± 0.5 µM
IC50 ALK-wt (ALK-wt): Picomolar inhibitory activity
IC50 (ALK-L1196M): 0.0014 µM
GI50 (H2228 (EML4-ALK) cells): 1.69 ± 0.4 µM
